Literature values, collected in patent publication US20060084635A1, “Aspirin and vitamin and/or trace element compositions for the amelioration and treatment of vascular disease” (priority 1993, published 2006).
Entries after “also recorded” stand apart in the source; their conditions may differ. Where two headings read alike, the source gives them in different places.

What was measured:
vascular tissue = test system: vascular tissue; design: key: + Beneficial; 0 No Effect; − Detrimental
[1] = test system: retirement community residents; details: for All Deaths RR / Ischemic Heart Disease RR / Myocardial Infarction RR / Other Heart Disease RR / Stroke RR / Total Cardiovascular Deaths RR: relative risk vs Aspirin− Vitamin−
[2] = test system: vascular wall wound healing; details: rat, in vivo
[3] = test system: immune-triggered endothelial damage
[4] = test system: serum cholesterol and triglycerides; details: for blood serum levels of cholesterol and triglycerides: in vivo
atherosclerotic lesions = details: animals fed an atherogenic diet
[5] = test system: prostaglandins in the vascular wall and platelets
[6] = test system: vascular lesions in branches of the aorta and cerebral arteries; details: rats; diet containing seven times the level of zinc required for normal growth
[7] = in sufficient amounts

[Cu] [Copper]
Anti-Aggregant (vascular tissue; Table 2): 0
Decreased Formation of Clots (vascular tissue; Table 2): 0
Decreased Immune-Induced Lesions (vascular tissue; Table 2): +
Decreased Peroxidation (vascular tissue; Table 2): 0
Decreases Serum Cholesterol (vascular tissue; Table 2): +
Inhibition of Cholesterol Migration (vascular tissue; Table 2): 0
Platelet Activity (vascular tissue; Table 2): 0
Prostaglandin Synthesis (vascular tissue; Table 2): 0
Speeding of Wound Healing (vascular tissue; Table 2): +

aspirin [Aspirin+ Vitamin−]
All Deaths No. ([1]; Men): 45
Ischemic Heart Disease No. ([1]; Men): 8
Myocardial Infarction No. ([1]; Men): 7
Other Heart Disease No. ([1]; Men): 6
Stroke No. ([1]; Men): 2
Total Cardiovascular Deaths No. ([1]; Men): 24
All Deaths RR ([1]; Men): 1.00
Ischemic Heart Disease RR ([1]; Men): 1.40
Myocardial Infarction RR ([1]; Men): 0.88
Other Heart Disease RR ([1]; Men): 1.52
Stroke RR ([1]; Men): 0.50
Total Cardiovascular Deaths RR ([1]; Men): 1.09
All Deaths No. ([1]; Women): 47
Ischemic Heart Disease No. ([1]; Women): 9
Myocardial Infarction No. ([1]; Women): 4
Other Heart Disease No. ([1]; Women): 6
Stroke No. ([1]; Women): 4
Total Cardiovascular Deaths No. ([1]; Women): 26
All Deaths RR ([1]; Women): 0.82
Ischemic Heart Disease RR ([1]; Women): 1.06
Myocardial Infarction RR ([1]; Women): 0.49
Other Heart Disease RR ([1]; Women): 0.81
Stroke RR ([1]; Women): 0.68
Total Cardiovascular Deaths RR ([1]; Women): 0.91

Cc1ncc(CO)c(CO)c1O.Cl [Vitamin B6]
Anti-Aggregant (vascular tissue; Table 1): 0
Decreased Formation of Clots (vascular tissue; Table 1): 0
Decreased Immune-Induced Lesions (vascular tissue; Table 1): 0
Decreased Peroxidation (vascular tissue; Table 1): 0
Decreases Serum Cholesterol (vascular tissue; Table 1): +
Inhibition of Cholesterol Migration (vascular tissue; Table 1): 0
Platelet Activity (vascular tissue; Table 1): 0
Prostaglandin Synthesis (vascular tissue; Table 1): 0
Speeding of Wound Healing (vascular tissue; Table 1): 0

Vitamin A
vascular wall wound healing / arterial healing [2]: improve arterial healing; also recorded: speeds vascular wall wound healing
Anti-Aggregant (vascular tissue; Table 1): +
Decreased Formation of Clots (vascular tissue; Table 1): 0
Decreased Immune-Induced Lesions (vascular tissue; Table 1): 0
Decreased Peroxidation (vascular tissue; Table 1): 0
Decreases Serum Cholesterol (vascular tissue; Table 1): −
Inhibition of Cholesterol Migration (vascular tissue; Table 1): 0
Platelet Activity (vascular tissue; Table 1): 0
Prostaglandin Synthesis (vascular tissue; Table 1): 0
Speeding of Wound Healing (vascular tissue; Table 1): +
anti-aggregant activity (platelets): mild anti-aggregant activity
immune-triggered endothelial damage / immune-induced lesions [3]: preventative effect on immune-induced lesions
serum cholesterol levels ([4]; at higher doses): net increase in serum cholesterol levels

Vitamin E
Anti-Aggregant (vascular tissue; Table 1): +
Decreased Formation of Clots (vascular tissue; Table 1): 0
Decreased Immune-Induced Lesions (vascular tissue; Table 1): +
Decreased Peroxidation (vascular tissue; Table 1): +
Decreases Serum Cholesterol (vascular tissue; Table 1): +
Inhibition of Cholesterol Migration (vascular tissue; Table 1): 0
Platelet Activity (vascular tissue; Table 1): 0
Prostaglandin Synthesis (vascular tissue; Table 1): +
Speeding of Wound Healing (vascular tissue; Table 1): 0
anti-aggregant activity (platelets): mild anti-aggregant effect
immune-triggered endothelial damage / immune-induced lesions [3]: preventative effect on immune-induced lesions; also recorded: protective effect
severity of lesions (atherosclerotic lesions): reduce the severity of lesions
serum and liver cholesterol levels ([4]; supplementation in vitamin E deficient animals): decrease serum and liver cholesterol levels in a dose- and time-dependent manner

O=C1O[C@H]([C@@H](O)CO)C(O)=C1O [Vitamin C]
Anti-Aggregant (vascular tissue; Table 1): 0
Decreased Formation of Clots (vascular tissue; Table 1): 0
Decreased Immune-Induced Lesions (vascular tissue; Table 1): 0
Decreased Peroxidation (vascular tissue; Table 1): 0
Decreases Serum Cholesterol (vascular tissue; Table 1): +
Inhibition of Cholesterol Migration (vascular tissue; Table 1): 0
Platelet Activity (vascular tissue; Table 1): 0
Prostaglandin Synthesis (vascular tissue; Table 1): +
Speeding of Wound Healing (vascular tissue; Table 1): 0
prostaglandin activity in the vascular wall [5]: increases the level of activity of prostaglandins in the vascular wall
prostaglandin activity in the vascular wall ([5]; listed as vitamin C): increased

[Se] [Selenium]
Anti-Aggregant (vascular tissue; Table 2): +
Decreased Formation of Clots (vascular tissue; Table 2): 0
Decreased Immune-Induced Lesions (vascular tissue; Table 2): +
Decreased Peroxidation (vascular tissue; Table 2): +
Decreases Serum Cholesterol (vascular tissue; Table 2): +
Inhibition of Cholesterol Migration (vascular tissue; Table 2): 0
Platelet Activity (vascular tissue; Table 2): +
Prostaglandin Synthesis (vascular tissue; Table 2): +
Speeding of Wound Healing (vascular tissue; Table 2): 0

[Mg+2] [Magnesium]
Anti-Aggregant (vascular tissue; Table 2): 0
Decreased Formation of Clots (vascular tissue; Table 2): 0
Decreased Immune-Induced Lesions (vascular tissue; Table 2): 0
Decreased Peroxidation (vascular tissue; Table 2): 0
Decreases Serum Cholesterol (vascular tissue; Table 2): +
Inhibition of Cholesterol Migration (vascular tissue; Table 2): 0
Platelet Activity (vascular tissue; Table 2): +
Prostaglandin Synthesis (vascular tissue; Table 2): 0
Speeding of Wound Healing (vascular tissue; Table 2): +

[Zn] [Zinc]
Anti-Aggregant (vascular tissue; Table 2): 0
Decreased Formation of Clots (vascular tissue; Table 2): 0
Decreased Immune-Induced Lesions (vascular tissue; Table 2): 0
Decreased Peroxidation (vascular tissue; Table 2): 0
Decreases Serum Cholesterol (vascular tissue; Table 2): +
Inhibition of Cholesterol Migration (vascular tissue; Table 2): 0
Platelet Activity (vascular tissue; Table 2): 0
Prostaglandin Synthesis (vascular tissue; Table 2): 0
Speeding of Wound Healing (vascular tissue; Table 2): 0
incidence and severity of vascular lesions / atherosclerosis [6]: reduced incidence of atherosclerosis in rats; also recorded: greatly reduced

O=C(O)c1cccnc1 [Niacin, Niacin (nictotinic acid)]
Anti-Aggregant (vascular tissue; Table 1): 0
Decreased Formation of Clots (vascular tissue; Table 1): 0
Decreased Immune-Induced Lesions (vascular tissue; Table 1): 0
Decreased Peroxidation (vascular tissue; Table 1): 0
Decreases Serum Cholesterol (vascular tissue; Table 1): +
Inhibition of Cholesterol Migration (vascular tissue; Table 1): 0
Platelet Activity (vascular tissue; Table 1): 0
Prostaglandin Synthesis (vascular tissue; Table 1): +
Speeding of Wound Healing (vascular tissue; Table 1): 0
blood serum levels of cholesterol and triglycerides [4]: reduce the blood serum levels of cholesterol and triglycerides
blood serum levels of cholesterol and triglycerides ([4]; listed as niacin): reduced
undesirable effects of supplements [7]: skin flush and dizziness

CC(=O)Oc1ccccc1C(=O)O [Aspirin, aspirin]
Anti-Aggregant (vascular tissue; Table 1): +
Decreased Formation of Clots (vascular tissue; Table 1): +
Decreased Immune-Induced Lesions (vascular tissue; Table 1): 0
Decreased Peroxidation (vascular tissue; Table 1): 0
Decreases Serum Cholesterol (vascular tissue; Table 1): 0
Inhibition of Cholesterol Migration (vascular tissue; Table 1): +
Platelet Activity (vascular tissue; Table 1): −
Prostaglandin Synthesis (vascular tissue; Table 1): −
Speeding of Wound Healing (vascular tissue; Table 1): −
tendency of blood clot formation (platelets; through platelet activity): reduces the tendency of blood clot formation
platelet prostaglandin function [5]: irreversibly block platelet prostaglandin function
prostaglandin activity in the vascular wall [5]: reversibly decreases prostaglandin activity in the vascular wall

aspirin [Aspirin++ Vitamin−]
All Deaths No. ([1]; Men): 65
Ischemic Heart Disease No. ([1]; Men): 10
Myocardial Infarction No. ([1]; Men): 7
Other Heart Disease No. ([1]; Men): 7
Stroke No. ([1]; Men): 7
Total Cardiovascular Deaths No. ([1]; Men): 27
All Deaths RR ([1]; Men): 1.35
Ischemic Heart Disease RR ([1]; Men): 1.37
Myocardial Infarction RR ([1]; Men): 0.91
Other Heart Disease RR ([1]; Men): 1.57
Stroke RR ([1]; Men): 1.53
Total Cardiovascular Deaths RR ([1]; Men): 1.09
All Deaths No. ([1]; Women): 77
Ischemic Heart Disease No. ([1]; Women): 14
Myocardial Infarction No. ([1]; Women): 10
Other Heart Disease No. ([1]; Women): 12
Stroke No. ([1]; Women): 9
Total Cardiovascular Deaths No. ([1]; Women): 45
All Deaths RR ([1]; Women): 1.36
Ischemic Heart Disease RR ([1]; Women): 1.50
Myocardial Infarction RR ([1]; Women): 1.25
Other Heart Disease RR ([1]; Women): 1.41
Stroke RR ([1]; Women): 1.58
Total Cardiovascular Deaths RR ([1]; Women): 1.48

[Cr] [Chromium]
Anti-Aggregant (vascular tissue; Table 2): 0
Decreased Formation of Clots (vascular tissue; Table 2): 0
Decreased Immune-Induced Lesions (vascular tissue; Table 2): 0
Decreased Peroxidation (vascular tissue; Table 2): 0
Decreases Serum Cholesterol (vascular tissue; Table 2): +
Inhibition of Cholesterol Migration (vascular tissue; Table 2): 0
Platelet Activity (vascular tissue; Table 2): 0
Prostaglandin Synthesis (vascular tissue; Table 2): 0
Speeding of Wound Healing (vascular tissue; Table 2): 0
